Results from PubChem BioAssay (NCI).
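All cell lines were grown in 96-well plates and treated with compound for 48 hours. Abbreviation: GI50, concentration required for 50% inhibition of growth. TGI marks complete inhibition of growth.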

Each compound was assayed on BT-549 breast (assay: DTP human tumour cell line panel, 48 h).

Row | Structure (SMILES) | TGI [µM]
1 | COc1ccccc1-c1cc(=O)c2c(C)cc(C)nc2[nH]1 | > 100
2 | C=CC(O)(CBr)CCC(Br)C(C)(C)Cl (stereo unspecified) | > 10

The compounds below were run on HT29 colon (assay: DTP human tumour cell line panel, 48 h).

Row | Structure (SMILES) | TGI [µM]
3 | O=c1cn[nH]c2nc3ccccc3n12 | > 100
4 | O=c1c(-c2ccccc2)c(SCCN2CCCC2)n(-c2ccccc2)c(=S)n1-c1ccccc1 | > 100
5 | O=C1C(Cl)=C(Cl)C(Cl)(Cl)C(Cl)C1(Cl)Cl (stereo unspecified) | 71.5
6 | COc1ccccc1-c1cc(=O)c2c(C)cc(C)nc2[nH]1 | > 100
7 | C=CC(O)(CBr)CCC(Br)C(C)(C)Cl (stereo unspecified) | > 10

Each compound was assayed on MDA-MB-231 breast (assay: DTP human tumour cell line panel, 48 h).

Row | Structure (SMILES) | TGI [µM]
8 | O=c1cn[nH]c2nc3ccccc3n12 | > 100
9 | O=c1c(-c2ccccc2)c(SCCN2CCCC2)n(-c2ccccc2)c(=S)n1-c1ccccc1 | > 100
10 | O=C1C(Cl)=C(Cl)C(Cl)(Cl)C(Cl)C1(Cl)Cl (stereo unspecified) | 44.6
11 | COc1ccccc1-c1cc(=O)c2c(C)cc(C)nc2[nH]1 | > 100
12 | C=CC(O)(CBr)CCC(Br)C(C)(C)Cl (stereo unspecified) | > 10

What follows are compounds tested on HL-60(TB) leukemia (assay: DTP human tumour cell line panel, 48 h).

Row | Structure (SMILES) | TGI [µM] | GI50 [µM]
13 | O=c1cn[nH]c2nc3ccccc3n12 | > 100 | 
14 | O=c1c(-c2ccccc2)c(SCCN2CCCC2)n(-c2ccccc2)c(=S)n1-c1ccccc1 | > 100 | 
15 | O=C1C(Cl)=C(Cl)C(Cl)(Cl)C(Cl)C1(Cl)Cl (stereo unspecified) | 58.4 | 
16 | COc1ccccc1-c1cc(=O)c2c(C)cc(C)nc2[nH]1 | > 100 | 30.4

What follows are compounds tested on MDA-MB-435 (assay: DTP human tumour cell line panel, 48 h).

Row | Structure (SMILES) | TGI [µM] | GI50 [µM]
17 | O=c1cn[nH]c2nc3ccccc3n12 | > 100 | 
18 | O=c1c(-c2ccccc2)c(SCCN2CCCC2)n(-c2ccccc2)c(=S)n1-c1ccccc1 | > 100 | 
19 | O=C1C(Cl)=C(Cl)C(Cl)(Cl)C(Cl)C1(Cl)Cl (stereo unspecified) | 59.2 | 
20 | COc1ccccc1-c1cc(=O)c2c(C)cc(C)nc2[nH]1 | > 100 | 32.1
21 | C=CC(O)(CBr)CCC(Br)C(C)(C)Cl (stereo unspecified) | > 10 | 

What follows are compounds tested on OVCAR-5 ovarian (assay: DTP human tumour cell line panel, 48 h).

Row | Structure (SMILES) | TGI [µM]
22 | O=c1cn[nH]c2nc3ccccc3n12 | > 100
23 | O=c1c(-c2ccccc2)c(SCCN2CCCC2)n(-c2ccccc2)c(=S)n1-c1ccccc1 | > 100
24 | O=C1C(Cl)=C(Cl)C(Cl)(Cl)C(Cl)C1(Cl)Cl (stereo unspecified) | 58
25 | COc1ccccc1-c1cc(=O)c2c(C)cc(C)nc2[nH]1 | > 100
26 | C=CC(O)(CBr)CCC(Br)C(C)(C)Cl (stereo unspecified) | > 10

These compounds were tested on TK-10 renal (assay: DTP human tumour cell line panel, 48 h).

Row | Structure (SMILES) | TGI [µM]
27 | O=c1cn[nH]c2nc3ccccc3n12 | > 100
28 | O=c1c(-c2ccccc2)c(SCCN2CCCC2)n(-c2ccccc2)c(=S)n1-c1ccccc1 | > 100
29 | O=C1C(Cl)=C(Cl)C(Cl)(Cl)C(Cl)C1(Cl)Cl (stereo unspecified) | 65.3
30 | COc1ccccc1-c1cc(=O)c2c(C)cc(C)nc2[nH]1 | > 100
31 | C=CC(O)(CBr)CCC(Br)C(C)(C)Cl (stereo unspecified) | > 10

What follows are compounds tested on CCRF-CEM leukemia (assay: DTP human tumour cell line panel, 48 h).

Row | Structure (SMILES) | TGI [µM]
32 | O=c1cn[nH]c2nc3ccccc3n12 | > 100
33 | O=c1c(-c2ccccc2)c(SCCN2CCCC2)n(-c2ccccc2)c(=S)n1-c1ccccc1 | > 100
34 | O=C1C(Cl)=C(Cl)C(Cl)(Cl)C(Cl)C1(Cl)Cl (stereo unspecified) | 82.7
35 | COc1ccccc1-c1cc(=O)c2c(C)cc(C)nc2[nH]1 | > 100
36 | C=CC(O)(CBr)CCC(Br)C(C)(C)Cl (stereo unspecified) | > 10

The compounds below were run on UO-31 renal (assay: DTP human tumour cell line panel, 48 h).

Row | Structure (SMILES) | TGI [µM]
37 | O=c1cn[nH]c2nc3ccccc3n12 | > 100
38 | O=C1C(Cl)=C(Cl)C(Cl)(Cl)C(Cl)C1(Cl)Cl (stereo unspecified) | 32.7
39 | COc1ccccc1-c1cc(=O)c2c(C)cc(C)nc2[nH]1 | > 100
40 | C=CC(O)(CBr)CCC(Br)C(C)(C)Cl (stereo unspecified) | > 10

The compounds below were run on HS 578T breast (assay: DTP human tumour cell line panel, 48 h).

Row | Structure (SMILES) | TGI [µM]
41 | O=c1cn[nH]c2nc3ccccc3n12 | > 100
42 | O=c1c(-c2ccccc2)c(SCCN2CCCC2)n(-c2ccccc2)c(=S)n1-c1ccccc1 | > 100
43 | O=C1C(Cl)=C(Cl)C(Cl)(Cl)C(Cl)C1(Cl)Cl (stereo unspecified) | 64.9
44 | COc1ccccc1-c1cc(=O)c2c(C)cc(C)nc2[nH]1 | > 100
45 | C=CC(O)(CBr)CCC(Br)C(C)(C)Cl (stereo unspecified) | > 10

What follows are compounds tested on T-47D breast (assay: DTP human tumour cell line panel, 48 h).

Row | Structure (SMILES) | TGI [µM]
46 | O=c1cn[nH]c2nc3ccccc3n12 | > 100
47 | O=c1c(-c2ccccc2)c(SCCN2CCCC2)n(-c2ccccc2)c(=S)n1-c1ccccc1 | > 100
48 | O=C1C(Cl)=C(Cl)C(Cl)(Cl)C(Cl)C1(Cl)Cl (stereo unspecified) | 75.9
49 | COc1ccccc1-c1cc(=O)c2c(C)cc(C)nc2[nH]1 | > 100
50 | C=CC(O)(CBr)CCC(Br)C(C)(C)Cl (stereo unspecified) | > 10

These compounds were tested on HOP-92 NSCLC (assay: DTP human tumour cell line panel, 48 h).

Row | Structure (SMILES) | TGI [µM]
51 | O=c1cn[nH]c2nc3ccccc3n12 | > 100
52 | O=c1c(-c2ccccc2)c(SCCN2CCCC2)n(-c2ccccc2)c(=S)n1-c1ccccc1 | > 100
53 | O=C1C(Cl)=C(Cl)C(Cl)(Cl)C(Cl)C1(Cl)Cl (stereo unspecified) | 59.8
54 | COc1ccccc1-c1cc(=O)c2c(C)cc(C)nc2[nH]1 | 94.4
55 | C=CC(O)(CBr)CCC(Br)C(C)(C)Cl (stereo unspecified) | > 10

The compounds below were run on SK-MEL-28 melanoma (assay: DTP human tumour cell line panel, 48 h).

Row | Structure (SMILES) | TGI [µM]
56 | O=c1cn[nH]c2nc3ccccc3n12 | > 100
57 | O=c1c(-c2ccccc2)c(SCCN2CCCC2)n(-c2ccccc2)c(=S)n1-c1ccccc1 | > 100
58 | O=C1C(Cl)=C(Cl)C(Cl)(Cl)C(Cl)C1(Cl)Cl (stereo unspecified) | 62.1
59 | COc1ccccc1-c1cc(=O)c2c(C)cc(C)nc2[nH]1 | > 100
60 | C=CC(O)(CBr)CCC(Br)C(C)(C)Cl (stereo unspecified) | > 10

Each compound was assayed on CAKI-1 renal (assay: DTP human tumour cell line panel, 48 h).

Row | Structure (SMILES) | TGI [µM]
61 | O=c1cn[nH]c2nc3ccccc3n12 | > 100
62 | O=c1c(-c2ccccc2)c(SCCN2CCCC2)n(-c2ccccc2)c(=S)n1-c1ccccc1 | > 100
63 | COc1ccccc1-c1cc(=O)c2c(C)cc(C)nc2[nH]1 | > 100
64 | C=CC(O)(CBr)CCC(Br)C(C)(C)Cl (stereo unspecified) | > 10

What follows are compounds tested on COLO 205 colon (assay: DTP human tumour cell line panel, 48 h).

Row | Structure (SMILES) | TGI [µM]
65 | O=c1cn[nH]c2nc3ccccc3n12 | > 100
66 | O=c1c(-c2ccccc2)c(SCCN2CCCC2)n(-c2ccccc2)c(=S)n1-c1ccccc1 | > 100
67 | O=C1C(Cl)=C(Cl)C(Cl)(Cl)C(Cl)C1(Cl)Cl (stereo unspecified) | 41.2
68 | COc1ccccc1-c1cc(=O)c2c(C)cc(C)nc2[nH]1 | > 100
69 | C=CC(O)(CBr)CCC(Br)C(C)(C)Cl (stereo unspecified) | > 10
